Measurements from PubChem BioAssay AID2060505 (Molecular Pharmacology Branch, DTP, NCI, 2025).
Blank lines part the entries; values can stand above or below the molecule they belong to.

System: 633275-114-R-J1-PDC complex spheroids, viability
Assay: Anticancer human tumor 633275-114-R-J1-PDC patient-derived endometrial adenocarcinoma cell line growth inhibition [GQUAD]
Settings: for IC50: curve of first compound; for viability, T/C: stronger effect = lower value
Procedure, shortened: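 Tumor cells were grown as complex spheroids with HUVEC endothelial cells and mesenchymal stem cells as stroma. G-quadruplex stabilizers were combined with targeted agents over half-log dilutions from near the clinical Cmax, or from 10 microM.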

[1] = second compound 0.0316 µM, first compound 0.0316 µM
[2] = second compound 0.0316 µM, first compound 0.1 µM
[3] = second compound 0.0316 µM, first compound 0.316 µM
[4] = second compound 0.0316 µM, first compound 1 µM
[5] = second compound 0.0316 µM, first compound 3.16 µM
[6] = second compound 0.0316 µM, first compound 10 µM
[7] = second compound 0.1 µM, first compound 0.0316 µM
[8] = second compound 0.1 µM, first compound 0.1 µM
[9] = second compound 0.1 µM, first compound 0.316 µM
[10] = second compound 0.1 µM, first compound 1 µM
[11] = second compound 0.1 µM, first compound 3.16 µM
[12] = second compound 0.1 µM, first compound 10 µM
[13] = second compound 0.316 µM, first compound 0.0316 µM
[14] = second compound 0.316 µM, first compound 0.1 µM
[15] = second compound 0.316 µM, first compound 0.316 µM
[16] = second compound 0.316 µM, first compound 1 µM
[17] = second compound 0.316 µM, first compound 3.16 µM
[18] = second compound 0.316 µM, first compound 10 µM
[19] = second compound 1 µM, first compound 0.0316 µM
[20] = second compound 1 µM, first compound 0.1 µM
[21] = second compound 1 µM, first compound 0.316 µM
[22] = second compound 1 µM, first compound 1 µM
[23] = second compound 1 µM, first compound 3.16 µM
[24] = second compound 1 µM, first compound 10 µM
[25] = second compound 3.16 µM, first compound 0.0316 µM
[26] = second compound 3.16 µM, first compound 0.1 µM
[27] = second compound 3.16 µM, first compound 0.316 µM
[28] = second compound 3.16 µM, first compound 1 µM
[29] = second compound 3.16 µM, first compound 3.16 µM
[30] = second compound 3.16 µM, first compound 10 µM
[31] = second compound 10 µM, first compound 0.0316 µM
[32] = second compound 10 µM, first compound 0.1 µM
[33] = second compound 10 µM, first compound 0.316 µM
[34] = second compound 10 µM, first compound 1 µM
[35] = second compound 10 µM, first compound 3.16 µM
[36] = second compound 10 µM, first compound 10 µM
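Note: spheroids exposed to the agents for seven days.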
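Throughout, for viability, T/C: percent of DMSO vehicle control viability which is 100%.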

SMILES: COc1ncnc(C2CC2)c1-c1ncc2cnn(Cc3ccc(-c4nc(C(F)(F)F)cn4C(C)C)cc3)c2n1 + Cc1[nH]c2ccc(F)cc2c1-c1nc2c3cccnc3c3ncccc3c2[nH]1
IC50 (second compound 0.0316 µM): > 10000 nM | IC50 (second compound 0.1 µM): > 10000 nM | IC50 (second compound 0.316 µM): > 10000 nM | IC50 (second compound 1 µM): > 10000 nM | IC50 (second compound 3.16 µM): > 10000 nM | IC50 (second compound 10 µM): > 10000 nM | viability, T/C [1]: 95.6% | viability, T/C [2]: 91.5% | viability, T/C [3]: 100% | viability, T/C [4]: 93.2% | viability, T/C [5]: 91.4% | viability, T/C [6]: 89.8% | viability, T/C [7]: 98.2% | viability, T/C [8]: 102% | viability, T/C [9]: 89.5% | viability, T/C [10]: 96.7% | viability, T/C [11]: 92.1% | viability, T/C [12]: 87.7% | viability, T/C [13]: 93.4% | viability, T/C [14]: 87.9% | viability, T/C [15]: 87.3% | viability, T/C [16]: 82.3% | viability, T/C [17]: 99.7% | viability, T/C [18]: 91.8% | viability, T/C [19]: 86.7% | viability, T/C [20]: 90% | viability, T/C [21]: 93.2% | viability, T/C [22]: 81.3% | viability, T/C [23]: 93.5% | viability, T/C [24]: 87.1% | viability, T/C [25]: 70% | viability, T/C [26]: 78.4% | viability, T/C [27]: 64.1% | viability, T/C [28]: 62.7% | viability, T/C [29]: 73.2% | viability, T/C [30]: 67% | viability, T/C [31]: 59.8% | viability, T/C [32]: 63.1% | viability, T/C [33]: 56% | viability, T/C [34]: 60.5% | viability, T/C [35]: 62.3% | viability, T/C [36]: 60.3%

IC50 (second compound 0.0316 µM): > 10000 nM | IC50 (second compound 0.1 µM): < 31.6 nM | IC50 (second compound 0.316 µM): < 31.6 nM | IC50 (second compound 1 µM): < 31.6 nM | IC50 (second compound 3.16 µM): < 31.6 nM | IC50 (second compound 10 µM): < 31.6 nM
SMILES: CC(C)n1c(=O)n(C)c2cnc3cc(F)c(-c4ccc(OCCCN5CCCCC5)nc4)cc3c21 + Cc1cnc(CNC(=O)c2c(=O)c3ccc(N4CCCN(C)CC4)nc3n3c2sc2ccccc23)cn1
viability, T/C [1]: 58% | viability, T/C [2]: 58.5% | viability, T/C [3]: 52.9% | viability, T/C [4]: 52.9% | viability, T/C [5]: 56.4% | viability, T/C [6]: 54% | viability, T/C [7]: 44.2% | viability, T/C [8]: 45.1% | viability, T/C [9]: 42.9% | viability, T/C [10]: 42.2% | viability, T/C [11]: 49.5% | viability, T/C [12]: 47.2% | viability, T/C [13]: 46.6% | viability, T/C [14]: 42.1% | viability, T/C [15]: 40.9% | viability, T/C [16]: 41.6% | viability, T/C [17]: 46.4% | viability, T/C [18]: 39.4% | viability, T/C [19]: 42.7% | viability, T/C [20]: 37.1% | viability, T/C [21]: 37.1% | viability, T/C [22]: 43.5% | viability, T/C [23]: 39.2% | viability, T/C [24]: 33.6% | viability, T/C [25]: 32.2% | viability, T/C [26]: 34.5% | viability, T/C [27]: 33.8% | viability, T/C [28]: 32.3% | viability, T/C [29]: 33.9% | viability, T/C [30]: 25.2% | viability, T/C [31]: 31.3% | viability, T/C [32]: 32% | viability, T/C [33]: 32.2% | viability, T/C [34]: 29.1% | viability, T/C [35]: 31.4% | viability, T/C [36]: 9.52%

IC50 (second compound 0.0316 µM): < 31.6 nM | IC50 (second compound 0.1 µM): < 31.6 nM | IC50 (second compound 0.316 µM): < 31.6 nM | IC50 (second compound 1 µM): < 31.6 nM | IC50 (second compound 3.16 µM): < 31.6 nM | IC50 (second compound 10 µM): < 31.6 nM
SMILES: CC1COCCN1c1cc(-c2ccnn2C)c2ccnc(-c3ccn[nH]3)c2n1 (stereo unspecified) + Cc1cnc(CNC(=O)c2c(=O)c3ccc(N4CCCN(C)CC4)nc3n3c2sc2ccccc23)cn1
viability, T/C [1]: 43.9% | viability, T/C [2]: 32.6% | viability, T/C [3]: 29.8% | viability, T/C [4]: 25.8% | viability, T/C [5]: 18.7% | viability, T/C [6]: 14.7% | viability, T/C [7]: 42.2% | viability, T/C [8]: 37.7% | viability, T/C [9]: 30.2% | viability, T/C [10]: 22.6% | viability, T/C [11]: 17.3% | viability, T/C [12]: 14.9% | viability, T/C [13]: 38.8% | viability, T/C [14]: 38.2% | viability, T/C [15]: 30.6% | viability, T/C [16]: 24% | viability, T/C [17]: 17.5% | viability, T/C [18]: 10.9% | viability, T/C [19]: 36.9% | viability, T/C [20]: 36.6% | viability, T/C [21]: 29.1% | viability, T/C [22]: 22.2% | viability, T/C [23]: 15.4% | viability, T/C [24]: 11.1% | viability, T/C [25]: 33.6% | viability, T/C [26]: 29.1% | viability, T/C [27]: 25% | viability, T/C [28]: 20.8% | viability, T/C [29]: 13.3% | viability, T/C [30]: 9.84% | viability, T/C [31]: 28.5% | viability, T/C [32]: 24.7% | viability, T/C [33]: 23.4% | viability, T/C [34]: 18.4% | viability, T/C [35]: 14.4% | viability, T/C [36]: 8.93%
